Results published in US20260007679A1, “METHODS OF TREATING CANCER USING 3-(4-((4-(MORPHOLINOMETHYL)BENZYL)OXY)-1-OXOISOINDOLIN-2-YL)PIPERIDINE-2,6-DIONE” (Celgene Corporation, priority 2012, published 2026).
Read-outs that look alike come from different tables or passages of the source.

Tests used:
Format in all cases: cell-based
[1] = test system: Human umbilical vascular endothelial cells; assay: Growth factor-induced HUVEC tube formation assay; conditions: for VEGF-induced HUVEC tube formation (tube length and tube area): VEGF 25 ng/mL
Method: Human Umbilical Vascular Endothelial Cell Tube Formation Assay: Compounds were tested in the growth factor-induced HUVEC tube formation assay. The tube formation plates were incubated at 37° C. for 30 minutes for matrigel to polymerize. The HUVECs were starved in 0.1% BSA basal EBM2 medium for 5 hours after washing with the same medium 3 times. The cells were trypsinized and centrifuged. Then 25 μL of 4× serially diluted compounds (10, 1, 0.1, 0.01, 0.001, 0.0001, 0.00001 μM) were added in duplicate with 50 μL of 2×10^4 cells/well to tube formation plates coated with matrigel. […] of 4×VEGF (final concentration=25 ng/mL) or bFGF (final concentration=10 ng/mL) were added to the plates. The cells were then incubated overnight (˜18 hours) at 37° C. in a humidified incubator. The tubule webs were stained with calcein AM at 4 g/L in 2% FBS/IBSS for 30 minutes and images taken by fluorescence microscopy. The tubules were quantified by the MetaMorph tube formation software program for tube area and tube length.
(§1) The percentage inhibition of cell proliferation, tube formation, migration, and invasion was calculated by subtracting the result for unstimulated DMSO control from test sample results, averaging all replicates, and normalizing to the growth factor-stimulated DMSO control (0% inhibition). The IC50 values were calculated by using GraphPad Prism 5.0.

[2] = test system: anti-CD3-stimulated human T cells; assay: Cytokine production by T cells (multi-plex CBA); conditions: for IL-10 production at high concentration: >10 nM; for concentrations that enhanced IL-2, IL-3, IL-5, IL-10, IL-13, GM-CSF, IFN-γ, TNF-α and RANTES: for compound I RANTES at 10 nM
Method: T cells were isolated from buffy coat by negative selection using the RosetteSep® T Cell Enrichment Cocktail. The manufacturer's procedures were followed accordingly. All 96-well plates were pre-coated with […] anti-human CD3 antibody in 100 μl 1×PBS for 4 hours at 37° C. The plates were washed three times with RPMI-1640 Complete Media prior to the T cell assay. T cells were then plated in CD3 pre-coated plates at a density of 2.5×10^5 cells/well in 180 μl RPMI-1640 Complete Media. The cells were treated with 20 μl 10× titrated compounds at 10, 1, 0.1, 0.01, 0.001, 0.0001 and 0.00001 μM. Final DMSO concentrations were 0.25%. The plates were incubated for 48 hours at 37° C., 5% CO2. After 48 hours, the supernatants were harvested and tested by a multi-plex cytometric bead array (CBA) assay for the following cytokines/chemokines: IL-2, IL-3, IL-5, IL-10, IL-13, IL-15, IL-17a, GM-CSF, G-SCF, IFN-γ, TNF-α and RANTES. The CBA plates were analyzed on the Luminex IS100 instrument. Data from each donor was graphed using GraphPad Prism 5.0 software and expressed as mean pg/mL±SEM and % of DMSO control±SEM.

[3] = test system: Human umbilical vascular endothelial cells; assay: Growth factor-induced HUVEC invasion assay; conditions: for IC50: Homo sapiens; for VEGF-, bFGF-, and HGF-induced HUVEC invasion: dose-dependent
Method: Human Umbilical Vascular Endothelial Cell Invasion Assay: In the HUVEC invasion assay, the concentration of human fibronectin is optimized to provide a suitable protein structure for adherent cells to attach to the membrane and allow free migration in response to an angiogenic stimulus (e.g. VEGF, bFGF, or HGF) in the lower chamber of the insert plate. HUVECs were starved in 0.1% BSA EBM2 medium for 6 hours after washing with the same medium 3 times. The cells were then trypsinized and centrifuged to remove the remaining trypsin. Then ˜0.5 to 1×10^6 cells in 125 μL/well and 125 μL of 8× serially diluted compounds (10, 1, 0.1, 0.01, 0.001 μM) were added to the upper chamber of the BD Falcon 24-well and 96-well insert plates in duplicate and incubated for ˜1 to 2 hours. (The plates contain a fluorescence blocking, microporous [3.0 μm pore size] PET membrane that has been evenly coated with human fibronectin.) Seven hundred fifty microliters of a 1.33× stock solution of VEGF (final concentration of 25 ng/mL), bFGF (final concentration of 10 ng/mL), or HGF (final concentration of 25 ng/mL) were then added to the lower chamber. The cells were incubated for 22±1 hours at 37° C. The migrated cells were stained with calcein AM at 4 μg/mL in HBSS containing 2% FBS, using 500 µL/well in 24-well plates and 200 µL/well in 96-well plates. The plates were incubated at 37° C. for 90 minutes and read in a fluorescence plate reader.
as §1

[4] = test system: rat aorta; assay: Rat aorta assay
Method: Compounds I, I-R, and I-S were tested in various angiogenesis inhibition assays.

[5] = Endothelial cell, read-out: HGF-induced invasion IC50 Values
[6] = Endothelial cell, read-out: VEGF-induced invasion IC50 Values
[7] = Endothelial cell, read-out: bFGF-induced invasion IC50 Values
[8] = HUVEC, read-out: IC50, HUVEC invasion (growth factor not given)
[9] = HUVEC, read-out: IC50 for inhibition of VEGF induced HUVEC invasion

O=C1CCC(N2Cc3c(OCc4ccc(CN5CCOCC5)cc4)cccc3C2=O)C(=O)N1 (racemic) [Compound I, 3-(4-((4-(morpholinomethyl)benzyl)oxy)-1-oxoisoindolin-2-yl)piperidine-2,6-dione]
VEGF-induced HUVEC tube formation (tube length and tube area) [1]: trend toward inhibiting
concentration at which enhancement of IL-5 production peaked [2]: 1 nM
GM-CSF production, times those of control cells ([2]; 1 nM): 3 times
IL-2 production, times those of control cells ([2]; 1 nM): 7 times
IL-5 production, times over that of control cells ([2]; 1 nM): 6 times
IL-13 production, times those of control cells ([2]; 1 nM): 5 times
GM-CSF production, times those of control cells ([2]; 10 nM): 6 times
IL-2 production, times those of control cells ([2]; 10 nM): 22 times
IL-5 production enhancement ([2]; 10 nM): ≤ 2 fold
IL-13 production, times those of control cells ([2]; 10 nM): 6.5 times
IL-10 production at high concentration [2]: inhibited
IC50 [3, 5]: 590 nM
IC50 [3, 6]: 0.14 nM
IC50 [3, 7]: 0.42 nM
IC50 [3, 8]: 0.4 nM
IC50 [3, 9]: < 0.3 nM
VEGF-, bFGF-, and HGF-induced HUVEC invasion [3]: significantly inhibited
anti-angiogenic activity in rat aorta assay [4]: modest anti-angiogenic activity

O=C1CC[C@@H](N2Cc3c(OCc4ccc(CN5CCOCC5)cc4)cccc3C2=O)C(=O)N1 [Compound I-R, (R)-3-(4-((4-(morpholinomethyl)benzyl)oxy)-1-oxoisoindolin-2-yl)piperidine-2,6-dione]
VEGF-induced HUVEC tube formation (tube length and tube area) [1]: trend toward inhibiting
inhibition of tube area and length ([1]; VEGF-induced, 10 μM, p<0.05 vs stimulated DMSO control): significant inhibition
GM-CSF production, times those of control cells ([2]; 10 nM): 6 times
IL-2 production, times those of control cells ([2]; 10 nM): 15 times
IL-13 production, times those of control cells ([2]; 10 nM): 7 times
IL-10 production enhancement ([2]; 0.01 to 1 nM): ~6 fold
IL-5 production, times that of control cells ([2]; 1 to 100 nM): up to 2.5 times
IL-10 production at high concentration [2]: inhibited
concentrations that enhanced IL-2, IL-3, IL-5, IL-10, IL-13, GM-CSF, IFN-γ, TNF-α and RANTES [2]: ≥ 1 nM
IC50 [3, 5]: 450 nM
IC50 [3, 6]: < 0.1 nM
IC50 [3, 7]: 13 nM
IC50 [3, 8]: 13 nM
IC50 [3, 9]: < 0.3 nM
VEGF-, bFGF-, and HGF-induced HUVEC invasion [3]: significantly inhibited
anti-angiogenic activity in rat aorta assay [4]: modest anti-angiogenic activity

O=C1CC[C@H](N2Cc3c(OCc4ccc(CN5CCOCC5)cc4)cccc3C2=O)C(=O)N1 [Compound I-S, (S)-3-(4-((4-(morpholinomethyl)benzyl)oxy)-1-oxoisoindolin-2-yl)piperidine-2,6-dione]
VEGF-induced HUVEC tube formation (tube length and tube area) [1]: trend toward inhibiting
concentration at which enhancement of IL-5 production peaked [2]: 1 nM
IL-5 production, times over that of control cells ([2]; 1 nM): 6 times
GM-CSF production, times those of control cells ([2]; 10 nM): 5 times
IL-2 production, times those of control cells ([2]; 10 nM): 18 times
IL-13 production, times those of control cells ([2]; 10 nM): 7 times
IL-10 production at high concentration [2]: inhibited
concentrations that enhanced IL-2, IL-3, IL-5, IL-10, IL-13, GM-CSF, IFN-γ, TNF-α and RANTES [2]: ≥ 1 nM
IC50 [3, 5]: 19 nM
IC50 [3, 6]: < 0.1 nM
IC50 [3, 7]: < 0.1 nM
IC50 [3, 8]: < 0.1 nM
IC50 [3, 9]: < 0.3 nM
VEGF-, bFGF-, and HGF-induced HUVEC invasion [3]: significantly inhibited
anti-angiogenic activity in rat aorta assay [4]: modest anti-angiogenic activity
